Consider one compound from PubChem BioAssay AID435015 (The Scripps Research Institute Molecular Screening Center, 2010).

Activity calls are given as the source filed them. No rule for the calls is given here.

This experiment deals with Vero E6 cytotoxicity, luminescence viability. Kind of experiment: PubChem AID 435015. The conditions noted are these: at 20 µM; stronger effect = higher value.

As to `CC(C)(C)NC(=O)C(c1cccnc1)N(C(=O)c1ccco1)c1ccc(C(C)(C)C)cc1` (stereo unspecified), the inhibition (commonly the change of the read-out against control, counted positive when it falls) is 23% (inactive).
